# Results reported in patent US20040171627A1, “Treatment of renal fibrosis” (Hadasit, priority 2001, published 2004).
# Where “and” joins values, the source holds several entries; their conditions need not be identical. Equal entries are not always repeated. Entries after “also recorded” stand apart in the source; their conditions may differ.
# Assays:
# [1] = tested on: RMR rats (5/6 nephrectomy), renal fibrosis; test: Light microscopy of kidneys after 5/6 nephrectomy (RMR) in rats, semi-quantitative histological evaluation; format: in vivo, Male Wistar rats
# Protocol: A solution of halofuginone was prepared by dissolution of powder of halofuginone hydrobromide in aqueous media containing suitable buffer. Male Wistar rats (weighing 300±30 g at the start of the experiment) were used in this study after being allowed to acclimatize to their environment for one week. Rats were assigned to undergo renal mass reduction (RMR) by 5/6 nephrectomy or sham operation, under anesthesia with intraperitoneal injection of pentobarbital (35 mg/kg body weight). RMR was performed by ligature of 2 of 3 major branches of the left renal artery and right nephrectomy in the same session. Sham rats undergo exposure of the kidneys and removal of the peri-renal fat, without undergoing RMR. After 24 hours recovery of the rats were assigned to one of the following groups: 1) Group I: RMR rats, oral gavage with halofuginone 0.2 mg/kg/day started 24 hours post surgery. 2) Group II: RMR rats, oral gavage with normal saline daily, started 24 hours post surgery. 3) Group III: age matched, sham operated rats served as the controls. All animals were allowed free access to a standard diet and water ad libitum. At sacrifice (10 weeks after RMR), kidneys were removed and processed for in situ hybridization, immunohistochemistry and histological evaluation. Light microscopy studies: specimens were fixed in 10% buffered formaldehyde and embedded in paraffin. Histological sections of 4-5μ thickness were stained with hematoxylin-eosin (HES), periodic acid Schiff (PAS) and Masson trichrome (light green). A semi-quantitative score was used to evaluate the degree of glomerulosclerosis, mesangial expansion and proliferation and tubulo-interstitial changes. A minimum of 30 glomeruli in each specimen was examined and the severity of the lesions was graded from 0 to 4+, according to the percentage of glomerular involvement. […] An injury score was obtained by multiplying the degree of damage (0-4+) by the percentage of glomeruli with the same degree of lesions. The evaluation of tubulointerstitial fibrosis was performed with the point-counting method using a Zeiss I integrating eyepiece.
# [2] = tested on: RMR rats (5/6 nephrectomy); test: Protein concentration in urine (proteinuria) of RMR rats; format: in vivo, Male Wistar rats; conditions: halofuginone 0.2 mg/kg/day oral, statistically significant from week 5 post-nephrectomy on (FIG. 2)
# Protocol: Male Wistar rats (weighing 300±30 g at the start of the experiment) were used in this study. They were allowed to acclimatize to their environment for one week. Rats were assigned to undergo renal mass reduction (RMR) by 5/6 nephrectomy or Sham operation, under anesthesia with intraperitoneal injection of pentobarbital (35 mg/kg body weight). RMR was performed by ligature of 2 of 3 major branches of the left renal artery and right nephrectomy in the same session. Sham rats have undergone exposition of the kidneys and removal of the peri-renal fat. After 24 hours recovery the rats were assigned to one of the following groups: 1) Group I: RMR rats, oral gavage with halofuginone 0.2 mg/kg/day started 24 hours post surgery. 2) Group II: RMR rats, oral gavage with normal saline daily, started 24 hours post surgery. 3) Group III: age matched, sham operated rats served as the controls. […] Every week, systolic blood pressure was measured by tail cuff manometry and urine samples were collected individually in metabolic cages for determination of total protein and creatinine excretion. Protein concentration in urine was determined by a colorimetric method using pyrogallol-red molybdate complex (cobas integra 700, Roche). Body weight was also measured. […] Serum creatinine was measured with a Hitachi model 747 autoanalyzer, using the kinetic Jaffe method.
compound,measurement,setting,value
"O=C(CC1NCCC[C@H]1O)Cn1cnc2cc(Br)c(Cl)cc2c1=O (stereo in doubt) [Halofuginone, 7-bromo-6-chloro-3-[3-(3-hydroxy-2-piperidinyl)-2-oxopropyl]-4(3H)-quinazolinone]",tubulointerstitial fibrosis compared to the control group,"[1]; halofuginone 0.2 mg/kg/day oral, RMR rats, 10 weeks",significant decrease
same,presence of glomerulosclerosis and mesangial proliferation,"[1]; halofuginone 0.2 mg/kg/day oral, RMR rats, 10 weeks, versus control",less accentuated
same,Tubules,"[1]; individual rats of Group I, halofuginone 0.2 mg/kg/day oral gavage, 10 weeks after RMR, light microscopy",Normal; also recorded: Few atrophic
same,Glomerulus Proliferation,"[1]; individual rats of Group I, halofuginone 0.2 mg/kg/day oral gavage, 10 weeks after RMR, light microscopy (preliminary results)",Mild (4×) and Moderate (2×)
same,Glomerulus Sclerosis,"[1]; individual rats of Group I, halofuginone 0.2 mg/kg/day oral gavage, 10 weeks after RMR, light microscopy, graded 0 to 4+",0
same,levels of proteinuria versus control nephrectomized group,[2],lower levels of proteinuria
